Assay results taken from patent publication US20220162558A1, “METHOD FOR INDUCING DIFFERENTIATION OF STEM CELLS INTO CHONDROCYTES BY USING OLIGOPEPTIDES” (POSTERA HEALTH SCIENCE Inc., priority 2019, published 2022).
“Also recorded” adds a separate entry of the source.

Experiments:
Format in all cases: cell-based
[1] = test system: tonsil-derived mesenchymal stem cells (TMSCs); test: First-round screening: chondrogenic biomarker mRNA expression by real-time RT-PCR in 2D culture; conditions: tripeptide 10 μM, serum-free medium, after 7 days of incubation
Experimental: The medium was replaced every three days.
(§1) Total RNA was extracted from the cells by using a TRIZOL™ reagent (Invitrogen, USA). The mRNA concentration was assayed by Nano Drop 2000 spectrophotometer (Thermo Scientific, USA). cDNA was synthesized by ReverTra Ace® qPCR RT kit (Toyobo, Japan). mRNA expression levels were analyzed by real-time RT-PCR (CFX96™, Bio-Rad, USA) using IQ™ SYBR® Green Supermix (Bio-Rad, USA). The expression levels of target genes were calculated as 2^−ΔΔCt by the following calculation equation, and the primer sequences are shown in Table 1 below.
(§2) ΔΔCt=(gene A−GAPDH)−(gene A−GAPDH)control

[2] = test system: tonsil-derived mesenchymal stem cells (TMSCs); test: 3D pellet culture: biomarker mRNA expression by real-time RT-PCR; conditions: tripeptide 10 μM, 3D pellet culture in chondrogenic medium
Experimental: (§3) Tonsil-derived mesenchymal stem cells (passage 6) were enzymatically detached by trypsin treatment and counted by a hemocytometer. The tube was centrifuged in 500-g relative centrifugal force (RCF) for 10 minutes and incubated at 37° C. under 5% carbon dioxide for 24 hours. A cell pellet consisting of about 3.0×10^5 cells was formed in a conical polypropylene tube (15 mL). The FBS-containing growth medium was replaced by medium A containing a high-glucose DMEM supplemented with 1.0% (v/v) antibiotic/antimitotic solution, 1.0% (v/v) penicillin/streptomycin solution, 50 μg/mL ascorbate-2-phosphate, 40 μg/mL L-proline, and 1% ITS+Premix (final concentration: 10 μg/mL bovine insulin, 5.5 μg/mL transferrin, 5 μg/mL sodium selenite, 4.7 μg/mL linoleic acid, and 0.5 mg/mL BSA), and 100 nM dexamethasone. Pellets were cultured at 37° C. under 5% carbon dioxide for 21 days under the following three different conditions: 1) medium A only, 2) medium A supplemented with kartogenin, or 3) medium A supplemented with each tripeptides. Each medium was replaced every three days. Triplicate experiments were carried out for each system.
as §1, §2
The medium was supplemented with each tripeptide (10 μM), and tonsil-derived mesenchymal stem cells (size: ˜ mm) were prepared. Chondrogenic medium without tripeptide was used as control experiment. Medium supplemented with kartogenin (target molecule) instead of tripeptide was used for the purpose of comparing chondrogenic differentiation of tonsil-derived mesenchymal stem cells.

[3] = test system: COL II in tonsil-derived mesenchymal stem cells; test: Immunofluorescence assay of COL II protein in sectioned 3D pellets; conditions: 3D pellet culture, compared with control system and WFE- or WLE-treated system
Experimental: as §3, with “Triplicate experiments were carried out for each system.” left out
The stem cell pellets were fixed in formalin aqueous solution (10% v/v) and embedded in paraffin. […] Then, the sectioned cell pellet samples were deparaffinized by xylene, and analyzed by immunofluorescence using antibody, alcian blue staining, and safranin O staining to visualize COL II, sGAG and proteoglycan, respectively. […]

[4] = test system: sGAG in tonsil-derived mesenchymal stem cells; test: Alcian blue staining of sectioned 3D pellets; conditions: 3D pellet cultured 21 days, sections of 7 μm
Experimental: as §3

[5] = test system: proteoglycan in tonsil-derived mesenchymal stem cells; test: Safranin O staining of sectioned 3D pellets; conditions: 3D pellet cultured 21 days, sections of 7 μm
Experimental: as §3

tryptophan-leucine-glutamic acid [WLE]
chondrogenic biomarker expression at mRNA level (COL II, SOX 9, COMP) [1]: enhanced
chondrogenic mRNAs of COL II, COMP and ACAN, expression [2]: highly expressed

O=C(O)c1ccccc1C(=O)Nc1ccc(-c2ccccc2)cc1 [kartogenin, reference compound]
COL II at protein level, red staining by immunofluorescence [3]: distinguished for their red staining by COL II

tryptophan-phenylalanine-glutamic acid [WFE]
chondrogenic biomarker expression at mRNA level (COL II, SOX 9, COMP) [1]: enhanced
chondrogenic mRNAs of COL II, COMP and ACAN, expression [2]: highly expressed

tyrosine-tyrosine-glutamic acid [YYE]
COL II at protein level, red staining by immunofluorescence [3]: distinguished for their red staining by COL II
sGAG, alcian blue staining [4]: upregulated
proteoglycan, safranin O staining [5]: upregulated
chondrogenic biomarker expression at mRNA level (COL II, SOX 9, COMP) [1]: enhanced; also recorded: good promoter comparable to kartogenin
chondrogenic mRNAs of COL II, COMP and ACAN, expression [2]: highly expressed
expression levels of COL X and COL I α2 relative to control system ([2]; hypertrophy / osteogenic biomarkers): less than half of the control system
